Assay results from patent US20040034102A1, “Oral pediatric trimethobenzamide formulations and methods” (King Pharmaceuticals, Inc., priority 2002, published 2004).
Read-outs that look alike come from different tables or passages of the source.

Columns and labels:
[1] = FDA notice; cited from earlier work
[2] = Safety assessment in the crossover study (adverse events, laboratory tests); format: in vivo, human; as to DIARRHEA (treatment emergent AE): test concentration or dose not given here; as to ERYTHEMA, PALMAR (treatment emergent AE): test concentration or dose not given here
Source text: Seventy-four healthy, non-smoking, male & female subjects, 18-65 years old were enrolled in this study. A total of 68 subjects completed all the requirements of the protocol. There were no enrollment violations. However, nine of the 74 subjects began the study during the third period of the initial group of subjects. All 74 subjects who received at least one dose of study medication were included in the safety analysis.
This study was a single center, randomized, open-label, 4-way crossover study in healthy subjects. Dosing was administered in the fasted state. Seventy-four (74) subjects were randomized into the study. All seventy-four subjects received one or more doses of study medication and are therefore included in the safety assessment. On Treatment Day 1 of the first treatment period, each subject was randomized to receive one of four possible study treatment sequences. The treatment groups consisted of the four treatments administered sequentially as DCAB, ADBC, BACD or CBDA. These treatments are shown below.
A signed informed consent was obtained from each subject. For screening purposes, the following procedures were required of each subject and were performed by the clinical site within 30 days prior to the study: a complete physical examination including a medical history, vital signs, clinical laboratory safety tests on blood and urine, medications taken prior to and during the study, and a serum pregnancy test for female subjects.
During the treatments, temperature, blood pressure, heart rate and respiratory rate were monitored as a safety measure. A physical examination and clinical laboratory tests were repeated at the completion of the study. Subjects were observed and questioned throughout the study for the occurrence of any adverse events.

[3] = cited from earlier work
[4] = 74 subjects, all 4 treatment periods

N-[2-(dimethylamino)-ethoxy]-3,4,5trimethoxybenzamide hydrochloride [trimethobenzamide hydrochloride]
plasma levels of an oral dose of 400 milligrams vs a 200-milligram intramuscular dose [1]: APP[…] | systemic bioavailability of orally administered drug, of the bioavailability of intramuscularly administered drug [1]: about 60% | subjects with decreased red blood cell count at the end of treatment ([2]; 5 percent prior to treatment): 11% | subjects with low hematocrit at the end of treatment ([2]; 8 percent prior to treatment): 34% | adverse events (AEs) experienced, total [2, 4]: 28 | treatment emergent AEs [2, 4]: 27 | AEs assessed as related to study treatment ([2]; all mild to moderate): 21 | hematocrit mean change ([2]; end of treatment vs prior): 2.3% | hemoglobin mean change ([2]; end of treatment vs prior): 0.6 g/dL | red blood cell count mean change ([2]; end of treatment vs prior): 2e+11 L⁻¹ | overall safety and tolerability ([2]; in vivo): safe and well tolerated | serious AEs ([2]; in vivo): no serious AEs | subjects with normal hemoglobin prior to treatment who had low hemoglobin at the end of treatment ([2]; no clinical significance): 13% | dizziness ([2]; number of events): 3 | neurologic complaints ([2]; number of events): 15 | paresthesias ([2]; number of events): 3 | headaches ([2]; number of events, in a total of 7 subjects): 8 | subjects prematurely withdrawn due to adverse events ([2]; of 6 withdrawn): 4 | samples with hyperkalemia ([2]; of the 72 samples drawn at the end of the study, due to hemolyzed specimens): 55 | ABDOMINAL PAIN (treatment emergent AE) ([2]; sequence A D B C (N = 20)): 5.0% | CONJUNCTIVITIS (treatment emergent AE) ([2]; sequence A D B C (N = 20)): 5.0% | DIARRHEA (treatment emergent AE) ([2]; sequence A D B C (N = 20)): 0.0% | DIZZINESS (treatment emergent AE) ([2]; sequence A D B C (N = 20)): 15.0% | EDEMA, PALMAR (treatment emergent AE) ([2]; sequence A D B C (N = 20)): 5.0% | ERYTHEMA, EXTERNAL NOSE (treatment emergent AE) ([2]; sequence A D B C (N = 20)): 0.0% | ERYTHEMA, PALMAR (treatment emergent AE) ([2]; sequence A D B C (N = 20)): 5.0% | HEADACHE (treatment emergent AE) ([2]; sequence A D B C (N = 20)): 5.0% | HYPOTONIA (treatment emergent AE) ([2]; sequence A D B C (N = 20)): 0.0% | INJECTION SITE REACTION (treatment emergent AE) ([2]; sequence A D B C (N = 20)): 0.0% | LEG CRAMPS (treatment emergent AE) ([2]; sequence A D B C (N = 20)): 0.0% | NAUSEA (treatment emergent AE) ([2]; sequence A D B C (N = 20)): 5.0% | NAUSEA AND VOMITING (treatment emergent AE) ([2]; sequence A D B C (N = 20)): 5.0% | Number of Subject With At Least one AE ([2]; sequence A D B C (N = 20)): 25.0% | Number of Subject With No AE ([2]; sequence A D B C (N = 20)): 75.0% | PARESTHESIA (treatment emergent AE) ([2]; sequence A D B C (N = 20)): 0.0% | PHARYNGITIS (treatment emergent AE) ([2]; sequence A D B C (N = 20)): 0.0% | RASH (treatment emergent AE) ([2]; sequence A D B C (N = 20)): 0.0% | […] (treatment emergent AE) ([2]; sequence A D B C (N = 20)): 0.0% | ABDOMINAL PAIN (treatment emergent AE) ([2]; sequence B A C D (N = 18)): 0.0% | CONJUNCTIVITIS (treatment emergent AE) ([2]; sequence B A C D (N = 18)): 0.0% | DIARRHEA (treatment emergent AE) ([2]; sequence B A C D (N = 18)): 0.0% | DIZZINESS (treatment emergent AE) ([2]; sequence B A C D (N = 18)): 0.0% | EDEMA, PALMAR (treatment emergent AE) ([2]; sequence B A C D (N = 18)): 0.0% | ERYTHEMA, EXTERNAL NOSE (treatment emergent AE) ([2]; sequence B A C D (N = 18)): 0.0% | ERYTHEMA, PALMAR (treatment emergent AE) ([2]; sequence B A C D (N = 18)): 0.0% | HEADACHE (treatment emergent AE) ([2]; sequence B A C D (N = 18)): 0.0% | HYPOTONIA (treatment emergent AE) ([2]; sequence B A C D (N = 18)): 0.0% | INJECTION SITE REACTION (treatment emergent AE) ([2]; sequence B A C D (N = 18)): 5.6% | LEG CRAMPS (treatment emergent AE) ([2]; sequence B A C D (N = 18)): 0.0% | NAUSEA (treatment emergent AE) ([2]; sequence B A C D (N = 18)): 0.0% | NAUSEA AND VOMITING (treatment emergent AE) ([2]; sequence B A C D (N = 18)): 0.0% | Number of Subject With At Least one AE ([2]; sequence B A C D (N = 18)): 22.2% | Number of Subject With No AE ([2]; sequence B A C D (N = 18)): 77.8% | PARESTHESIA (treatment emergent AE) ([2]; sequence B A C D (N = 18)): 11.1% | PHARYNGITIS (treatment emergent AE) ([2]; sequence B A C D (N = 18)): 0.0% | RASH (treatment emergent AE) ([2]; sequence B A C D (N = 18)): 5.6% | […] (treatment emergent AE) ([2]; sequence B A C D (N = 18)): 5.6% | ABDOMINAL PAIN (treatment emergent AE) ([2]; sequence C B D A (N = 18)): 0.0% | CONJUNCTIVITIS (treatment emergent AE) ([2]; sequence C B D A (N = 18)): 0.0% | DIARRHEA (treatment emergent AE) ([2]; sequence C B D A (N = 18)): 5.6% | DIZZINESS (treatment emergent AE) ([2]; sequence C B D A (N = 18)): 0.0% | EDEMA, PALMAR (treatment emergent AE) ([2]; sequence C B D A (N = 18)): 0.0% | ERYTHEMA, EXTERNAL NOSE (treatment emergent AE) ([2]; sequence C B D A (N = 18)): 5.6% | ERYTHEMA, PALMAR (treatment emergent AE) ([2]; sequence C B D A (N = 18)): 0.0% | HEADACHE (treatment emergent AE) ([2]; sequence C B D A (N = 18)): 16.7% | HYPOTONIA (treatment emergent AE) ([2]; sequence C B D A (N = 18)): 5.6% | INJECTION SITE REACTION (treatment emergent AE) ([2]; sequence C B D A (N = 18)): 0.0% | LEG CRAMPS (treatment emergent AE) ([2]; sequence C B D A (N = 18)): 0.0% | NAUSEA (treatment emergent AE) ([2]; sequence C B D A (N = 18)): 0.0% | NAUSEA AND VOMITING (treatment emergent AE) ([2]; sequence C B D A (N = 18)): 0.0% | Number of Subject With At Least one AE ([2]; sequence C B D A (N = 18)): 22.2% | Number of Subject With No AE ([2]; sequence C B D A (N = 18)): 77.8% | PARESTHESIA (treatment emergent AE) ([2]; sequence C B D A (N = 18)): 0.0% | PHARYNGITIS (treatment emergent AE) ([2]; sequence C B D A (N = 18)): 0.0% | RASH (treatment emergent AE) ([2]; sequence C B D A (N = 18)): 0.0% | […] (treatment emergent AE) ([2]; sequence C B D A (N = 18)): 0.0% | ABDOMINAL PAIN (treatment emergent AE) ([2]; sequence D C A B (N = 18)): 0.0% | CONJUNCTIVITIS (treatment emergent AE) ([2]; sequence D C A B (N = 18)): 0.0% | DIARRHEA (treatment emergent AE) ([2]; sequence D C A B (N = 18)): 0.0% | DIZZINESS (treatment emergent AE) ([2]; sequence D C A B (N = 18)): 0.0% | EDEMA, PALMAR (treatment emergent AE) ([2]; sequence D C A B (N = 18)): 0.0% | ERYTHEMA, EXTERNAL NOSE (treatment emergent AE) ([2]; sequence D C A B (N = 18)): 0.0% | ERYTHEMA, PALMAR (treatment emergent AE) ([2]; sequence D C A B (N = 18)): 0.0% | HEADACHE (treatment emergent AE) ([2]; sequence D C A B (N = 18)): 16.7% | HYPOTONIA (treatment emergent AE) ([2]; sequence D C A B (N = 18)): 0.0% | INJECTION SITE REACTION (treatment emergent AE) ([2]; sequence D C A B (N = 18)): 0.0% | LEG CRAMPS (treatment emergent AE) ([2]; sequence D C A B (N = 18)): 5.6% | NAUSEA (treatment emergent AE) ([2]; sequence D C A B (N = 18)): 0.0% | NAUSEA AND VOMITING (treatment emergent AE) ([2]; sequence D C A B (N = 18)): 0.0% | Number of Subject With At Least one AE ([2]; sequence D C A B (N = 18)): 27.8% | Number of Subject With No AE ([2]; sequence D C A B (N = 18)): 72.2% | PARESTHESIA (treatment emergent AE) ([2]; sequence D C A B (N = 18)): 5.6% | PHARYNGITIS (treatment emergent AE) ([2]; sequence D C A B (N = 18)): 0.0% | RASH (treatment emergent AE) ([2]; sequence D C A B (N = 18)): 0.0% | […] (treatment emergent AE) ([2]; sequence D C A B (N = 18)): 0.0% | severe AEs ([2]; severe pharyngitis, judged unrelated to study treatment): 1 | DURATION ([3]; IM): 2 to 3 h | ONSET ([3]; IM): 15 to 35 min | DURATION ([3]; PO): 3 to 4 h | ONSET ([3]; PO): 10 to 40 min | DURATION ([3]; Rect): 3 to 4 h | ONSET ([3]; Rect): 10 to 40 min
